According to US20240307416A1, “FILM-FORMING COMPOSITIONS COMPRISING SALICYLIC ACID AND METHODS OF USE” (3M INNOVATIVE PROPERTIES COMPANY, priority 2021, published 2024):

Experiment: Dissolution of salicylic acid in film-forming gel components
Assay type: physicochemical

Solubility of salicylic acid in the silicate tackifying resin and/or the volatile solvent: does not appear to be readily soluble
Compound: O=C(O)c1ccccc1O [salicylic acid]
Dissolution of salicylic acid in the formulation of U.S. Pat. No. 10,603,405 (SPOx added at the end of the manufacture): did not appear dissolve and remained a solid particulate
